In patent US10471024B2, “Increased effectiveness of allylamine drug compounds for topical treatment of fungal infections of the skin and skin appendages” (BIOPHILE CORPORATION, LTD., priority 2007, dated 2019):
Counter-ions that a name gives are not always drawn.

Key:
[1] = theoretical fraction of positively charged terbinafine from pKa; assay type: physicochemical
From the text: The positive charge can be determined by examining the pKa of the active ingredient. […] At pH<pKa, the positively charged terbinafine is more than 50%. When pH>pKa the positively charged terbinafine is less than 50%.

[2] = zeta potential of terbinafine hydrochloride solution; assay type: physicochemical; settings: 0.02 g/ml solution
From the text: Prototype measurements of zeta potential of the 0.02 g/ml terbinafine hydrochloride solution and the result is positive at pH of below 5.11. However, there are other anions in the solution, e.g., chloride ion and hydroxide ion (sodium hydroxide was used to adjust the solution pH) that make negative values of zeta potential. [table]

[3] = 0.5% in methanol/water (4:6), 25 degrees Celsius; cited from earlier work

Row | positively charged terbinafine ([1]; pH 5.10) | positively charged terbinafine molecules ([1]; pH 7.10) [%] | positively charged terbinafine ([1]; pH 9.10) | Zeta Potential ([2]; pH 3.68) | Zeta Potential ([2]; pH 5.11) | Zeta Potential ([2]; pH 7.07 (adjusted with sodium hydroxide)) [mV] | Zeta Potential ([2]; pH 8.73 (adjusted with sodium hydroxide)) [mV] | Compound | pH of a solution [3]
1 | about 99% | 50 | about 1% | – | – | – | – | CN(C/C=C/C#CC(C)(C)C)Cc1cccc2ccccc12 [Terbinafine] | –
2 | – | – | – | +12.1 mV | +31.2 mV | −34.0 | −58.8 | CN(C/C=C/C#CC(C)(C)C)Cc1cccc2ccccc12 [Terbinafine hydrochloride] | approximately 4.7
